Assay results reported in ChEMBL document CHEMBL1909046, “DrugMatrix in vitro pharmacology data”.
pIC50: −log10 of the molar value.

What was measured:
[1] = target: T1, Alpha-1A adrenergic receptor (Rattus norvegicus, UniProt P43140); test: DRUGMATRIX: Alpha-1A adrenergic receptor radioligand binding (ligand: prazosin); assay type: cell membranes, Wistar, Submaxillary gland, Membrane; conditions: Not Active = under 50% inhibition at 10 µM
T1 sequence (P43140 whole entry): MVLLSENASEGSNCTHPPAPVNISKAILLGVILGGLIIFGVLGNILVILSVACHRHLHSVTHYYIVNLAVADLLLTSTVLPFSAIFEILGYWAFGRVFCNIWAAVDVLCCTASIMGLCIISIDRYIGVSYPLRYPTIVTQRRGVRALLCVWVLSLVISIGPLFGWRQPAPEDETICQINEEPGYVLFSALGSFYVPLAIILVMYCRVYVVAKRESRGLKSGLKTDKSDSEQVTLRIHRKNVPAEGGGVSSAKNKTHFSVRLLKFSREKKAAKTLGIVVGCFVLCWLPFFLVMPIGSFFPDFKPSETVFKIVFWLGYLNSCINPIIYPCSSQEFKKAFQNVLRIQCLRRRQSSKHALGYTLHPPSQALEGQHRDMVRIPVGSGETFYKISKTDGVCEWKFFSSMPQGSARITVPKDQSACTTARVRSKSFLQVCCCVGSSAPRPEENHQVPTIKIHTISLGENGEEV

[2] = target: T2, B2 bradykinin receptor (Homo sapiens, UniProt P30411); assay type: cell membranes, Membrane; conditions: chem-1; note: in other assays of this panel Not Active means under 50% inhibition at 10 µM
T2 sequence (P30411 whole entry): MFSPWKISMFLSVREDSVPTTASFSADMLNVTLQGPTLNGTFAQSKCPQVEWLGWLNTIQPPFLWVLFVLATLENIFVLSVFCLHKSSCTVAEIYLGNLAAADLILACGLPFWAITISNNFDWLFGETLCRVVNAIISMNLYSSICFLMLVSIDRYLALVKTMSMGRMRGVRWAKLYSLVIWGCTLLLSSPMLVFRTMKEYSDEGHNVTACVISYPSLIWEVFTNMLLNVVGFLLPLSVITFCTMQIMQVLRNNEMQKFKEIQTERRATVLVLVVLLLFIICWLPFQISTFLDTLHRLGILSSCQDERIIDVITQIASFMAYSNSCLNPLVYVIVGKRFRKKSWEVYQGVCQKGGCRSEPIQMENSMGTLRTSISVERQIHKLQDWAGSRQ

[3] = target: Melanocortin receptor 5 (Homo sapiens, UniProt P33032); assay type: cell membranes, Membrane; conditions: hek293; note: in other assays of this panel Not Active means under 50% inhibition at 10 µM
[4] = target: T3, Muscarinic acetylcholine receptor M4 (Homo sapiens, UniProt P08173); assay type: cell membranes, CHO-K1, Membrane; conditions: cho-k1; note: in other assays of this panel Not Active means under 50% inhibition at 10 µM
T3 sequence (P08173 whole entry): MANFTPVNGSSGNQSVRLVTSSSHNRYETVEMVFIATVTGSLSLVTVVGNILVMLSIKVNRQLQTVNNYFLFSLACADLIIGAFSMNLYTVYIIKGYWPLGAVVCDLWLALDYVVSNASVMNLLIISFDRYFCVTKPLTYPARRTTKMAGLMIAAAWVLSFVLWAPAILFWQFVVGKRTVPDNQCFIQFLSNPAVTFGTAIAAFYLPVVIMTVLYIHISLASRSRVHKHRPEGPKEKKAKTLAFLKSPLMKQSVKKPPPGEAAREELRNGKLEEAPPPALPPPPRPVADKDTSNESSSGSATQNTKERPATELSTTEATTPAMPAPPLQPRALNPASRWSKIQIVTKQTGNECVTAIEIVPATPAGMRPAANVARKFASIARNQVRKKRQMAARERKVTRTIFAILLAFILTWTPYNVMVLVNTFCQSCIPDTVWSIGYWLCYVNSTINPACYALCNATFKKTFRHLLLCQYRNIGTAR

[5] = target: T4, Caspase-1 (Homo sapiens, UniProt P29466); design: species or system Escherichia coli;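 note: Caspase-1 enzyme inhibition assay with a peptide substrate; in other assays of this panel Not Active means under 50% inhibition at 10 µM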
T4 sequence (P29466 whole entry): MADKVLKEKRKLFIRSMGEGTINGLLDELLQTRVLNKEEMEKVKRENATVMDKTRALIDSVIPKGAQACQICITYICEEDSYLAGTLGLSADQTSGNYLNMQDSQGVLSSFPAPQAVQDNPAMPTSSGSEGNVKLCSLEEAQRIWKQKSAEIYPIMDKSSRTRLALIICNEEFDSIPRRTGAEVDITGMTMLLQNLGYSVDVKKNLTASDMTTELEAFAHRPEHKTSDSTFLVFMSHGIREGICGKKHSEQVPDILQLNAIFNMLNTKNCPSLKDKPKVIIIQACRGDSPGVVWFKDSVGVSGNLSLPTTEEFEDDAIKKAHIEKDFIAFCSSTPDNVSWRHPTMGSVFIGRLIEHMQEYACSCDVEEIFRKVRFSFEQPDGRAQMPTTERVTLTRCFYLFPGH

[6] = target: Tyrosine-protein kinase Fyn (Homo sapiens, UniProt P06241); test: biochemical; assay type: cell-based, Insect cells; conditions: insect cells
Sequence of Tyrosine-protein kinase Fyn (P06241 whole entry): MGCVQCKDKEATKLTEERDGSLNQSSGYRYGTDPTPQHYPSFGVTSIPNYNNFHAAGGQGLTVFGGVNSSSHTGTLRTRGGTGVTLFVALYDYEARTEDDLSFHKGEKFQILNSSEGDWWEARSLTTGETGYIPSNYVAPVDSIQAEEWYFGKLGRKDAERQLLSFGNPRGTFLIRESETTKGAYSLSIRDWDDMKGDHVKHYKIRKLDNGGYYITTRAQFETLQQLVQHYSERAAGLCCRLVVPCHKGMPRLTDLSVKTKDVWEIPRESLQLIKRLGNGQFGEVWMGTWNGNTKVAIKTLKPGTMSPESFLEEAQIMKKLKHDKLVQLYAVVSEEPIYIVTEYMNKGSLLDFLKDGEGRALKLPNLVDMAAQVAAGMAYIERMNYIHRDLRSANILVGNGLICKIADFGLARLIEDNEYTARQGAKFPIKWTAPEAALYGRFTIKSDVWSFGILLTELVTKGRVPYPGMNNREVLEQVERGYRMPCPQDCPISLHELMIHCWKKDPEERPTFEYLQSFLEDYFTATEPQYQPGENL

Sequence of Melanocortin receptor 5 (P33032 whole entry): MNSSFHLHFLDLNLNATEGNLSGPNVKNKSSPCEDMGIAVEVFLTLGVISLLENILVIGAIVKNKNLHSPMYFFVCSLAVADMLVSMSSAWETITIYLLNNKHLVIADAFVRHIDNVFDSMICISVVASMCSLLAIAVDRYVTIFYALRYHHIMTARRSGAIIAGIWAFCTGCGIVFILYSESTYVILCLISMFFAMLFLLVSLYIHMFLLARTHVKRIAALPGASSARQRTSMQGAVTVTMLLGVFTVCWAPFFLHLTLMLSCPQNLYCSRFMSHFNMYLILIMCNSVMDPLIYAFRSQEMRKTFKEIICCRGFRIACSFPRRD

Row | Molecule | IC50 [1] | IC50 [2] | IC50 [3] | IC50 [4] | IC50 [5] | IC50 [6] | Ki [1] | Ki [2] | Ki [3] | Ki [4] | Ki [5] | pIC50 ([6]; read-out: IC50)
1 | O=C(C1CCCCC1)N1CC(=O)N2CCc3ccccc3C2C1 (stereo not drawn) [PRAZIQUANTEL] | Not Active | Not Active | Not Active | Not Active | Not Active | Not Active | – | – | – | – | – | –
2 | CCN(CC)CCOC(=O)c1ccc(N)cc1 [PROCAINE] | Not Active | Not Active | Not Active | Not Active | Not Active | Not Active | – | – | – | – | – | –
3 | CCCN(CCC)C(=O)C(CCC(=O)O)NC(=O)c1ccccc1 (stereo not drawn) [PROGLUMIDE] | Not Active | Not Active | Not Active | Not Active | Not Active | Not Active | – | – | – | – | – | –
4 | NC(=O)c1cnccn1 [PYRAZINAMIDE] | Not Active | Not Active | Not Active | Not Active | Not Active | Not Active | – | – | – | – | – | –
5 | Cc1cc2cc3c(C)cc(=O)oc3c(C)c2o1 [TRIOXSALEN] | Not Active | Not Active | Not Active | Not Active | Not Active | Not Active | – | – | – | – | – | –
6 | CCCC(CCC)C(=O)O [VALPROIC ACID] | Not Active | Not Active | Not Active | Not Active | Not Active | Not Active | – | – | – | – | – | –
7 | CCC1=C[C@@H]2CN(C1)Cc1c([nH]c3ccccc13)[C@@](C(=O)OC)(c1cc3c(cc1OC)N(C)[C@H]1[C@@](O)(C(=O)OC)[C@H](OC(C)=O)[C@]4(CC)C=CCN5CC[C@]31[C@@H]54)C2 [VINORELBINE] | Not Active | Not Active | Not Active | Not Active | Not Active | Not Active | – | – | – | – | – | –
8 | CADMIUM DICHLORIDE | Not Active | Not Active | Not Active | Not Active | Not Active | – | Not Active | Not Active | Not Active | Not Active | Not Active | 6.86
